This data set can be described thus: activity coefficient (dimensionless); of the first substance listed, at infinite dilution; xn = mol fraction of the nth substance listed. Conditions: 100 kPa, Liquid, Chromatography, x1 = 0.

Numbers after ± are expanded uncertainties.

Regarding `C#CCCCCCC` [1-octyne] + CCCC[P+](CC)(CCCC)CCCC.CCOP(=O)([O-])OCC, the activity coefficient is 1.17 ± 0.07 (328.15 K); 1.22 ± 0.08 (338.15 K); 1.28 ± 0.08 (348.15 K); 1.33 ± 0.09 (358.15 K); 1.38 ± 0.09 (368.15 K).

Take `CCCOCCC` [dipropyl ether] + CCCC[P+](CC)(CCCC)CCCC.CCOP(=O)([O-])OCC: the activity coefficient reads like this: (328.15 K) 2.59 ± 0.18; (338.15 K) 2.55 ± 0.17; (348.15 K) 2.51 ± 0.17; (358.15 K) 2.47 ± 0.17; (368.15 K) 2.43 ± 0.17.

`Cc1ccccc1C` [1,2-dimethylbenzene] + CCCC[P+](CC)(CCCC)CCCC.CCOP(=O)([O-])OCC: the activity coefficient runs as follows: (328.15 K) 1.55 ± 0.1; (338.15 K) 1.52 ± 0.1; (348.15 K) 1.5 ± 0.1; (358.15 K) 1.47 ± 0.1; (368.15 K) 1.45 ± 0.1.

Turning to `C=CCCCCCCCC` [1-decene] + CCCC[P+](CC)(CCCC)CCCC.CCOP(=O)([O-])OCC, the activity coefficient by setting is: (328.15 K) 5.2 ± 0.35; (338.15 K) 5.06 ± 0.34; (348.15 K) 4.93 ± 0.34; (358.15 K) 4.81 ± 0.33; (368.15 K) 4.69 ± 0.32.

In the case of `C=CCCC` [1-pentene] + CCCC[P+](CC)(CCCC)CCCC.CCOP(=O)([O-])OCC, the activity coefficient (328.15 K) worked out at 2.18 ± 0.15; the activity coefficient (338.15 K) worked out at 2.15 ± 0.15; the activity coefficient (348.15 K) came to 2.13 ± 0.14; the activity coefficient (358.15 K) came out at 2.11 ± 0.14; the activity coefficient (368.15 K) stood at 2.09 ± 0.14.

As to `CCCCC(C)=O` [2-hexanone] + CCCC[P+](CC)(CCCC)CCCC.CCOP(=O)([O-])OCC, the activity coefficient reads like this: (328.15 K) 1.15 ± 0.07; (338.15 K) 1.15 ± 0.07; (348.15 K) 1.15 ± 0.07; (358.15 K) 1.15 ± 0.07; (368.15 K) 1.14 ± 0.07.

As to `CCCCCCCCCC` [decane] + CCCC[P+](CC)(CCCC)CCCC.CCOP(=O)([O-])OCC, the activity coefficient is, setting by setting: (328.15 K) 7.01 ± 0.48; (338.15 K) 6.74 ± 0.46; (348.15 K) 6.49 ± 0.44; (358.15 K) 6.26 ± 0.43; (368.15 K) 6.05 ± 0.41.

As for `CCCCCCCCC` [nonane] + CCCC[P+](CC)(CCCC)CCCC.CCOP(=O)([O-])OCC, the activity coefficient runs as follows: (328.15 K) 5.79 ± 0.39; (338.15 K) 5.6 ± 0.38; (348.15 K) 5.43 ± 0.37; (358.15 K) 5.27 ± 0.36; (368.15 K) 5.13 ± 0.35.

For `C=CCCCCCC` [oct-1-ene] + CCCC[P+](CC)(CCCC)CCCC.CCOP(=O)([O-])OCC, the activity coefficient is, setting by setting: (328.15 K) 3.68 ± 0.25; (338.15 K) 3.6 ± 0.25; (348.15 K) 3.52 ± 0.24; (358.15 K) 3.45 ± 0.23; (368.15 K) 3.39 ± 0.23.

`C1CCCCCC1` [cycloheptane] + CCCC[P+](CC)(CCCC)CCCC.CCOP(=O)([O-])OCC: the activity coefficient is, setting by setting: (328.15 K) 2.48 ± 0.17; (338.15 K) 2.42 ± 0.16; (348.15 K) 2.37 ± 0.16; (358.15 K) 2.32 ± 0.16; (368.15 K) 2.27 ± 0.15.

Regarding `Cc1ccccc1` [toluene] + CCCC[P+](CC)(CCCC)CCCC.CCOP(=O)([O-])OCC, the activity coefficient by setting is: (328.15 K) 1.2 ± 0.08; (338.15 K) 1.19 ± 0.08; (348.15 K) 1.18 ± 0.08; (358.15 K) 1.16 ± 0.07; (368.15 K) 1.15 ± 0.07.

On to `CCc1ccccc1` [ethylbenzene] + CCCC[P+](CC)(CCCC)CCCC.CCOP(=O)([O-])OCC, for which the activity coefficient was found to be 1.55 ± 0.1 (328.15 K); 1.52 ± 0.1 (338.15 K); 1.49 ± 0.1 (348.15 K); 1.46 ± 0.1 (358.15 K); 1.44 ± 0.09 (368.15 K).

(Values after the NIST ThermoML archive (doi:10.1021/acs.jced.5b00980).)
